Results published in patent US20100150948A1, “MATERIALS AND METHODS FOR IMPROVED IMMUNOGLYCOPROTEINS” (TRUBION PHARMACEUTICALS, INC., priority 2006, published 2010).

Columns and labels:
[1] = system: CD16 (low affinity allele); assay: Binding to soluble FcγR-MIg fusion on WIL2-S cells, flow cytometry; details: 0, 2, 5, 10, 30 or 100 μg/mL castanospermine in culture media
Experimental: The immunoglycoproteins produced according to Example 2 were assayed in vitro for binding to soluble Ig-fusion versions of Fcγ receptors, in which the extracellular domain of a receptor is fused to murine IgG2a Fc.
The soluble Fey receptor materials were generated by fusing the extracellular domain of Fcγ Receptors I (Genbank Acc. No. BC032634), IIa (Genbank Acc. No. NM_021642), IIb (Genbank Acc. No. BC031992), and III-V158 (high affinity allele) (Genbank Acc. No. X07934) and III-F158 (low affinity allele), respectively, to a murine IgG2a Fc with a Pro to Ser mutation at residue 238 (MIgG2aP238S). For both forms of Fcγ RIII (CD16), an HE4 leader was cloned onto CD16 amino acids 1-178 and then fused to MIgG2aP238S.
The assays were carried out as follows. […] The cells were then incubated with the desired FcγR-MIg fusion in the same diluent at a concentration of 1 μg/ml on ice for 45 minutes.
The complexes (WIL2-S cells/SMIP/FcγR-MIg) were then incubated with PE conjugated AffiniPure F(Ab')2 Goat Anti-Mouse IgG [Jackson Immunoresearch] (a mouse Fc-specific antibody with minimal cross reactivity with human Fc) at a 1:100 dilution. The cells were analyzed by one-color flow cytometry on a FACsCalibur using CellQuest software (Becton Dickinson).

[2] = system: BJAB B cells; assay: ADCC activity, 51Cr release, PBMC effector cells; assay type: cell-based, human; details: for ADCC activity (% specific killing) of TRU-015 purified protein: 0, 2, 5, 10, 30 or 100 μg/mL castanospermine in culture media
Experimental: To determine the ADCC activity of purified TRU-016, labeled BJAB B cells were used as targets and human peripheral blood mononuclear cells (PBMC) as effector cells. BJAB B cells (10^7 cells) were labeled with 500 μCi/mL ^51Cr sodium chromate for 2 hours at 37° C. in IMDM/10% FBS. PBMCs were isolated from heparinized, human whole blood by fractionation over Lymphocyte Separation Media (LSM, ICN Biomedical) gradients. Reagent samples were added to RPMI media with 10% FBS and serial dilutions of each reagent were prepared. The ^51Cr labeled BJAB were added at 2×10^4 cells/well. The PBMCs were then added at 5×10^5 cells/well for a final ratio of 25:1 effectors (PBMC):targets (BJAB). Reactions were set up in quadruplicate wells of a 96 well plate. Reactions were allowed to proceed for 6 hours at 37° C. in 5% CO2 prior to harvesting and counting. CPM released was measured on a Packard TopCounNXT from 50 μl dried culture supernatant. Percent specific killing was calculated by subtracting (cpm [mean of quadruplicate samples] of sample—cpm spontaneous release)/(cpm maximal release-cpm spontaneous release) x100, and data were plotted as % specific killing versus TRU-016 concentration.

[3] = system: CD37-expressing Daudi cancer B-cell line; assay: Antibody Dependent Cellular Cytotoxicity (ADCC) assay, 51Cr release, PBL effector cells; assay type: cell-based, human; details: TRU-016 treated with CS over a range of 100 μM-800 μM final concentration
Experimental: TRU-016 produced as described in Example 8 is incubated with the CD37-expressing Daudi cancer B-cell line in conjunction with primary human peripheral blood lymphocytes (PBL's) effector cells to assess ADCC activity.
Daudi target cells (5×10̂6) are added to a 15 ml conical tube and then centrifuged at 250×g for 5 minutes at 20° C. and the supernatant removed. The cell pellet is resuspended by the addition of 0.3 mCi Chromium-51 (^51Cr, GE Healthcare, CJ51). The cells are incubated for 75 minutes at 37° C. with 5% CO2, allowing the cells to incorporate the radioactive isotope. The cells are then washed three times to remove any unincorporated ^51Cr. This is done by adding 10 mL of complete media—IMDM (Gibco) with 10% FBS (Gibco)—to the tube, centrifuging at 250×g for 5 minutes at 20° C. followed by removal of supernatant. The final resuspension is in 11.5 mL of complete media. TRU-016 is diluted in complete media, at concentrations that are able to generate maximal to background levels of cell lysis (500 ng/mL-0.005 ng/mL). These titrations are plated out, 50 μL/well, in a round bottom 96 well plate. The ^51Cr labeled target cells are added to the dose titrations of TRU-016 at 50 μL/well and the control wells (control media without TRU-016). PBL's are isolated from fresh heparinized whole blood by density gradient centrifugation using Lymphocyte Separation Media as per protocol (LSM, MP Biomedical, 50494/36427). […] The assay is incubated for 4.5-5 hours at 37° C., 5% CO2. The effector cells lyse the target cells relative to the TRU-016 concentration, releasing a proportional amount of ^51Cr into the assay supernatant. Following the incubation the plate is centrifuged at 250×g for 3 minutes at 20° C. A 25 μL volume of cell-free supernatant is removed from all wells to a scintillation plate (Perkin Elmer 6005185) and dried overnight. The amount of ^51Cr isotope in each well of the scintillation plate is measured using a Topcount plate reader (Perkin Elmer, C9904V0). The data are expressed as percent of specific release. Specific release is calculated as:
(Sample value−Spontaneous value)/(Maximum value−Spontaneous value)*100% • Spontaneous=amount of ^51Cr released from target cell only • Maximum release=amount of ^51Cr released from targets treated with detergent lysing agent • Background Control=amount of ^51Cr released from target cells+effector cells (No TRU-016)
A dose response is generated and fit to a 4-parameter logistic curve using SoftMax Pro software (Molecular Devices, ver 5.0.1). Titrations of TRU-016 are utilized to create dose response curves of test and reference material for comparison. The EC50 values for the treated articles are compared to the untreated control (no CS) to determine the percent increase in ADCC activity.

Compound | CD16 binding (geometric mean fluorescence intensity) of TRU-015 purified protein produced by CHO cells cultured with the modifier [1] | ADCC activity (% specific killing) of TRU-016 purified protein ([2]; 0, 10, 25, 50, 100 or 200 μM castanospermine in culture media) | ADCC (% specific killing) of TRU-016 purified protein ([2]; 200 μM DMJ, 10 μM kifenunsine or 200 μM castanospermine in culture media) | ADCC activity (% specific killing) of TRU-015 purified protein ([2]; PBMC from high affinity (V/V158) CD16 donors) | ADCC activity (% specific killing) of TRU-015 purified protein ([2]; PBMC from low affinity (F/F158) CD16 donors) | ADCC activity relative to untreated TRU-016 [3]
O[C@H]1[C@H](O)[C@@H](O)CN2CC[C@H](O)[C@H]12 [castanospermine] | dose-dependent increase | dose-dependent increase | improved ADCC | dose-dependent increase | dose-dependent increase | –
TRU-016: recombinant single chain protein (SMIP) that binds CD37; G28-1 binding domain, modified hinge, human IgG1 CH2 and CH3; SEQ ID NO: 2 | – | – | – | – | – | significantly increased
